Experimental data published in patent publication US20120021992A1, “METHODS FOR IMPROVING NEUROLOGICAL OUTCOME AFTER NEURAL INJURY AND NEURODEGENERATIVE DISEASE” (Henry Ford Health System, priority 2009, published 2012).

Columns and labels:
[1] = test system: stroke (middle cerebral artery occlusion (MCAo)) rats; assay: Embolic middle cerebral artery occlusion (MCAo) stroke model; type: in vivo, rat
Experimental: (§1) Effectiveness of treatment with thymosin β4 was tested in stroke (middle cerebral artery occlusion (MCAo)) rats and in experimental autoimmune encephalomyelitis (EAE) mice (a well-established in vivo model for multiple sclerosis). Both the stroke rats and the EAE mice were treated with 6 mg/kg thymosin β4 intraperitoneally (IP) in a volume of 0.3 mL twenty-four hours after stroke or after the day of immunization in the EAE model and then every three days (6 mg/kg IP) for four additional doses. An equal volume of saline was administered (IP) to a group of both stroke rats and EAE mice as a control. Bromodeoxyuridine (BrdU; 100 mg/kg) was administered (IP) daily for seven days, initiated 24 hours after MCAo to label proliferating cells. Behavioral tests (adhesive removable test and NSS (Neurological Severity Score)) were performed immediately before treatment and at days 1, 7, 14, 21, 28, 35, 42, 49, and 56 days after MCAo and up to 30 days in the EAE mouse model. All rats were sacrificed 56 days after MCAo; EAE mice were sacrificed at 30 days.

[2] = test system: experimental autoimmune encephalomyelitis (EAE) mice; assay: Experimental autoimmune encephalomyelitis (EAE) model of multiple sclerosis; type: in vivo, mouse; details: 6 mg/kg IP, up to 30 days, versus control, p<0.01 (FIG. 9)
Experimental: as §1

[3] = embolic stroke rats, 6 mg/kg IP, versus saline control

thymosin β4
number of myelinated axons ([1]; after MCAo, Bielschowsky and Luxol Fast Blue staining, p<0.05 (FIG. 4)): increased | cellular proliferation (BrdU expression, number of BrdU immunoreactive cells) ([1]; after MCAo, p<0.05 (FIG. 8)): also increased | number of oligodendrocyte progenitors and matured oligodendrocytes ([1]; after MCAo, p<0.05 (FIGS. 5-7)): increased | functional outcome by behavioral tests (adhesive removal test, NSS) ([1]; beginning at 21 days after stroke onset, 6 mg/kg IP, p<0.05 (FIG. 1-2)): Significant functional improvement | relative increase in BrdU expression in the striatum or myelinated region of the rat brain ([1]; embolic stroke rats, 6 mg/kg IP from 24 h after MCAo, then every three days for four additional doses, versus saline control): 42% | increase in CNP, a marker of mature oligodendrocytes [1, 3]: 11% | increase in NG-2, a marker of immature oligodendrocytes [1, 3]: 47% | functional neurological score [2]: robust improvement
